# Values of other authors as cited in US20080261897A1, “Formulation Containing a Polyphenol-Containing Composition and Isomaltulose” (priority 2005, published 2008).
compound,measurement,value
"O=C(CO)[C@@H](O)[C@H](O)[C@H](O)CO[C@H]1O[C@H](CO)[C@@H](O)[C@H](O)[C@H]1O [isomaltulose, 6-O-α-D-glucopyranosylfructose]",solubility of isomaltulose in water,0.49 g of anhydrous isomaltulose per g of water
